Test results from US20090143279A1 (priority 2007, published 2009).
Read-outs that look alike come from different tables or passages of the source.

Key:
C2C12 myotubes = details: for Viability (composite Z-score): normalized score vs mock-treated (DMSO) wells
mtOXPHOS transcripts = type: cell-based, mouse; details: for mitoOX (composite Z-score): normalized score vs mock-treated (DMSO) wells
[1] = system: mitochondrial membrane potential; type: cell-based, mouse; details: for ΔΨm (composite Z-score): normalized score vs mock-treated (DMSO) wells
nuOXPHOS transcripts = type: cell-based, mouse; details: for nucOX (composite Z-score): normalized score vs mock-treated (DMSO) wells
OXPHOS gene expression = type: cell-based, mouse; details: for GE-HTS (composite Z-score): normalized score vs mock-treated (DMSO) wells
reactive oxygen species = type: cell-based, mouse; details: for ROS (composite Z-score): normalized score vs mock-treated (DMSO) wells
cytochrome c = type: cell-based, mouse; details: for cyt c (composite Z-score): normalized score vs mock-treated (DMSO) wells
[2] = system: cellular dehydrogenase activity; details: for MTT (composite Z-score): normalized score vs mock-treated (DMSO) wells
[3] = composite Z-score vs mock-treated (DMSO) wells, Conc 20 μM
[4] = normalized composite Z-score vs mock-treated (DMSO) wells, Conc 20 μM
[5] = composite Z-score vs DMSO wells, Conc 20 μM
[6] = composite Z-score vs DMSO, Conc 20 μM
[7] = Table 7, C2C12 myotubes, 48 h, composite Z-score

Cc1cc(=O)c2c(O)cc(O)c(C)c2o1 [isoeugenitol]
Viability (C2C12 myotubes; [3]): 0.377 | mitoOX (mtOXPHOS transcripts; [3]): −0.680 | ΔΨm [1, 3]: 0.369 | nucOX (nuOXPHOS transcripts; [3]): −0.647 | GE-HTS (OXPHOS gene expression; [3]): −0.717 | ROS (reactive oxygen species; [3]): 1.129 | cyt c (cytochrome c; [3]): 0.662 | MTT [2, 3]: −0.500

CCCCCC1C(=O)CCC1CC(=O)O (centres unmarked) [dihydrojasmonic acid]
Viability (C2C12 myotubes; [4]): −1.223 | mitoOX (mtOXPHOS transcripts; [4]): −0.505 | ΔΨm [1, 4]: −0.294 | nucOX (nuOXPHOS transcripts; [4]): −0.168 | GE-HTS (OXPHOS gene expression; [4]): −0.313 | ROS (reactive oxygen species; [4]): 0.827 | cyt c (cytochrome c; [4]): −0.847 | MTT [2, 4]: −0.149

CC1=C2C(=CO[C@H](C)[C@H]2C)C(O)=C(C(=O)O)C1=O [citrinin]
Viability (C2C12 myotubes; [5]): −0.040 | mitoOX (mtOXPHOS transcripts; [5]): 0.218 | ΔΨm [1, 5]: −0.590 | nucOX (nuOXPHOS transcripts; [5]): 0.730 | GE-HTS (OXPHOS gene expression; [5]): 0.608 | ROS (reactive oxygen species; [5]): 0.122 | cyt c (cytochrome c; [5]): 0.012 | MTT [2, 5]: −0.980

O=C(O[C@@H]1Cc2c(O)cc(O)cc2O[C@@H]1c1cc(O)c(O)c(O)c1-c1c([C@H]2Oc3cc(O)cc(O)c3C[C@H]2OC(=O)c2cc(O)c(O)c(O)c2)cc(O)c(O)c1O)c1cc(O)c(O)c(O)c1 [2′,2′-bisepigallocatechin digallate]
Viability (C2C12 myotubes; [4]): 0.851 | mitoOX (mtOXPHOS transcripts; [4]): −0.808 | ΔΨm [1, 4]: −1.132 | nucOX (nuOXPHOS transcripts; [4]): −0.836 | GE-HTS (OXPHOS gene expression; [4]): −0.865 | ROS (reactive oxygen species; [4]): −0.130 | cyt c (cytochrome c; [4]): 0.616 | MTT [2, 4]: −0.826

C[C@@H]1[C@H]2[C@H](O[C@@H]3O[C@H](CO)[C@@H](O)[C@H](O)[C@H]3O)OC=C(C(=O)O)[C@H]2C[C@@H]1O [loganic acid]
Viability (composite Z-score) (C2C12 myotubes; Conc 20 μM): 1.214 | mitoOX (composite Z-score) (mtOXPHOS transcripts; Conc 20 μM): −0.800 | ΔΨm (composite Z-score) ([1]; Conc 20 μM): −0.193 | nucOX (composite Z-score) (nuOXPHOS transcripts; Conc 20 μM): −0.274 | GE-HTS (composite Z-score) (OXPHOS gene expression; Conc 20 μM): −0.463 | ROS (composite Z-score) (reactive oxygen species; Conc 20 μM): −0.346 | cyt c (composite Z-score) (cytochrome c; Conc 20 μM): −0.485 | MTT (composite Z-score) ([2]; Conc 20 μM): −0.538

C/C1=C\CC(C)(C)/C=C/CC2(C)OC2CC1 (centres unmarked) [epoxy (1,11)humulene]
Viability (composite Z-score) (C2C12 myotubes; Conc 20 μM): 1.157 | mitoOX (composite Z-score) (mtOXPHOS transcripts; Conc 20 μM): −1.021 | ΔΨm (composite Z-score) ([1]; Conc 20 μM): −0.509 | nucOX (composite Z-score) (nuOXPHOS transcripts; Conc 20 μM): −1.115 | GE-HTS (composite Z-score) (OXPHOS gene expression; Conc 20 μM): −1.172 | ROS (composite Z-score) (reactive oxygen species; Conc 20 μM): −0.355 | cyt c (composite Z-score) (cytochrome c; Conc 20 μM): 0.979 | MTT (composite Z-score) ([2]; Conc 20 μM): −0.802

COc1ccc2c(c1)C1(C)CCC(O)CC1CC2 (centres unmarked)
Viability (C2C12 myotubes; [6]): −1.078 | mitoOX (mtOXPHOS transcripts; [6]): −0.270 | ΔΨm [1, 6]: −0.840 | nucOX (nuOXPHOS transcripts; [6]): −0.350 | GE-HTS (OXPHOS gene expression; [6]): −0.375 | ROS (reactive oxygen species; [6]): 0.559 | cyt c (cytochrome c; [6]): −0.087 | MTT [2, 6]: −2.017

c1ccc2c(c1)CN1CCCC1=N2 [desoxypeganine]
Viability (C2C12 myotubes; [6]): −0.281 | mitoOX (mtOXPHOS transcripts; [6]): 0.556 | ΔΨm [1, 6]: 1.046 | nucOX (nuOXPHOS transcripts; [6]): 0.621 | GE-HTS (OXPHOS gene expression; [6]): 0.631 | ROS (reactive oxygen species; [6]): 0.647 | cyt c (cytochrome c; [6]): 0.372 | MTT [2, 6]: 1.441

CCOc1ccc(C(=O)c2ccc(O)c(O)c2O)cc1 [2,3,4-trihydroxy-4′-ethoxybenzophenone]
Viability (composite Z-score) (C2C12 myotubes; Conc 20 μM): −0.413 | mitoOX (composite Z-score) (mtOXPHOS transcripts; Conc 20 μM): −0.478 | ΔΨm (composite Z-score) ([1]; Conc 20 μM): −1.185 | nucOX (composite Z-score) (nuOXPHOS transcripts; Conc 20 μM): −0.896 | GE-HTS (composite Z-score) (OXPHOS gene expression; Conc 20 μM): −0.823 | ROS (composite Z-score) (reactive oxygen species; Conc 20 μM): 0.052 | cyt c (composite Z-score) (cytochrome c; Conc 20 μM): 0.440 | MTT (composite Z-score) ([2]; Conc 20 μM): −2.368

CC(=O)O[C@@H]1c2c(ccc3ccc(=O)oc23)OC(C)(C)[C@@H]1OC(=O)CC(C)C [dihydrosamidin, reference compound]
Viability (composite Z-score) (C2C12 myotubes; Conc 20 μM): 0.476 | mitoOX (composite Z-score) (mtOXPHOS transcripts; Conc 20 μM): 1.477 | mito-OXPHOS Z (mtOXPHOS transcripts; [7]): 1.48 | ΔΨm (composite Z-score) ([1]; Conc 20 μM): 0.199 | nucOX (composite Z-score) (nuOXPHOS transcripts; Conc 20 μM): 1.843 | nucOXPHOS Z (nuOXPHOS transcripts; [7]): 1.84 | GE-HTS (composite Z-score) (OXPHOS gene expression; Conc 20 μM): 1.854 | ROS (composite Z-score) (reactive oxygen species; Conc 20 μM): 4.794 | cyt c (composite Z-score) (cytochrome c; Conc 20 μM): 0.147 | MTT (composite Z-score) ([2]; Conc 20 μM): −0.826

C=CC(C1=CC(=O)C(OC)=CC1=O)c1ccc(OC)cc1 (centres unmarked) [4,4′-dimethoxydalbergione]
Viability (C2C12 myotubes; [3]): −0.207 | mitoOX (mtOXPHOS transcripts; [3]): −0.975 | ΔΨm [1, 3]: −0.993 | nucOX (nuOXPHOS transcripts; [3]): −0.677 | GE-HTS (OXPHOS gene expression; [3]): −0.842 | ROS (reactive oxygen species; [3]): −0.802 | cyt c (cytochrome c; [3]): −1.432 | MTT [2, 3]: −2.648

CC[C@H](C=C[C@@H](C)[C@H]1CC[C@H]2[C@@H]3CCC4=CC(=O)CC[C@]4(C)[C@H]3CC[C@]12C)C(C)C [stigmasta-4,22-dien-3-one]
Viability (C2C12 myotubes): 0.023 | mitoOX (mtOXPHOS transcripts): −0.118 | ΔΨm [1]: −0.299 | nucOX (nuOXPHOS transcripts): −0.094 | GE-HTS (OXPHOS gene expression): −0.138 | ROS (reactive oxygen species): 0.550 | cyt c (cytochrome c): 0.434 | MTT [2]: −1.294
